The record followed here is ChEMBL document CHEMBL3507680, “University of Dundee, Gates Library screen for HepG2 cell viability”.

Each structure is given as a SMILES string.

A short description of the data set: Human HepG2 cell viability assay in 384 well format. The following applies: HepG2 cells, read-out: Inhibition. Details: dose 125 nL, time 70.5 hour; cytotoxicity at 70.5 h: concentration not given beside the values. It is filed as toxicity, cell-based.

Consider `CCC(=O)NC1CCCN(C(=O)Nc2cccc(COC(C)C)c2)C1` (centres undefined), for which the cytotoxicity at 70.5 h is 7.06%. In the case of `CC(C(=O)NCC1(c2c(F)cccc2F)CCCC1)S(C)(=O)=O` (centres undefined) it was -7.67%; in that of `O=C(c1[nH]c2ccc(Cl)cc2c1Cl)N1CCC2(CC1)OCCO2`, -0.999%. In the case of `COc1ccc(CNC2CCN(c3ccccc3)C2)cc1O` (centres undefined) it was 19.7%; in that of `Nc1cc2c(nn1)CCN(C(=O)c1ccccc1Oc1cccnc1)C2`, -1.03%.

As to `CN(C)C1(CNC(=O)C/C=C/c2ccc(F)cc2)CCOCC1`, the cytotoxicity at 70.5 h worked out at 22.9%. In the case of `N#Cc1cc(S(N)(=O)=O)ccc1NC1CCc2c(F)cccc21` (centres undefined) it was -10.4%. Next, `Cn1ncc2cnn(CC(O)COCc3ccccc3Cl)c2c1=O` (centres undefined): -5.81%; `COCCN(Cc1ccc(F)cc1C#N)CC(F)(F)F`: -10.5%. Next, `CCN(CCNC(=O)C1CCCN(C(C)=O)C1)c1ccccc1C` (centres undefined): -10.5%. On to `c1cnnc(NCC2CN(CCn3cccn3)CCO2)c1` (centres undefined), for which the cytotoxicity at 70.5 h was -2.81%. On to `Cc1nnc(CN2CCCC2c2ccc(Cl)c(Cl)c2)o1` (centres undefined), for which the cytotoxicity at 70.5 h is -1.84%. Take `CC(C(=O)N(C)C1CCCCC1)S(=O)(=O)Cc1csc(-c2cccs2)n1` (centres undefined): the cytotoxicity at 70.5 h is -7.18%. As to `CC(C(=O)NCC1CCCCC1)S(=O)(=O)Cc1csc(-c2cccs2)n1` (centres undefined), the cytotoxicity at 70.5 h was -9.36%. Next, `NC(=O)C(NC(=O)COC1CCCCC1)c1ccccc1` (centres undefined): -4.15%; `NC(=O)C(NC(=O)COC1CCCC1)c1ccccc1` (centres undefined): -6.85%. In the case of `CCN(CC)S(=O)(=O)N1CCCC1C(=O)N1CCSCC1` (centres undefined) it was -2.8%; in that of `CN(C)S(=O)(=O)N1CCCC1C(=O)N1CCSCC1` (centres undefined), 22.8%. In the case of `O=C(c1ccc(O)nc1)N1CCN(C(=O)c2ccc(F)cc2F)CC1` it was -7.11%; in that of `CCN1CCN(c2ccc(C(=O)NCc3cc(C)no3)cc2F)CC1`, -4.13%; in that of `CCn1nc2c(cc1=O)CN(CC(=O)Nc1nccs1)CC2`, -2.47%. As to `CCn1nc2c(cc1=O)CN(CC(=O)N(C)c1nccs1)CC2`, the cytotoxicity at 70.5 h came to 25.4%. Consider `CC(C)n1nc2c(cc1=O)CN(CC(=O)N(C)c1nccs1)CC2`, for which the cytotoxicity at 70.5 h was 6.02%.

As to `O=C(NC(C(=O)Nc1cc[nH]n1)c1ccccc1)C1CCC1` (centres undefined), the cytotoxicity at 70.5 h is -0.966%.

With `COc1cc(C)c(CNC(C)c2csc(C)n2)cc1OC` (centres undefined), the cytotoxicity at 70.5 h was -2.42%. In the case of `CCC(O)CN1CCN(C(=O)c2csc(COC)n2)CC1` (centres undefined) it was -3.48%; in that of `CN(CC1CN(CCn2cc(C#N)cn2)CCO1)c1cccnn1` (centres undefined), -6.68%. In the case of `OC(COCc1cccs1)Cn1cc(Cl)cn1` (centres undefined) it was -1.21%. As for `OC(COCc1cccs1)Cn1cc(Br)cn1` (centres undefined), the cytotoxicity at 70.5 h is -1.14%. Next, `Cc1cnn(CCNCc2csc(COc3ccccc3)n2)c1`: -0.421%; `CN(C)C(=O)CN(C)C(=O)c1csc(Br)c1`: 13.6%; `COc1ncccc1NC(=O)C1CC(=O)N(Cc2ccccn2)C1` (centres undefined): 0.729%. In the case of `CN(Cc1cccc(Cl)c1)S(=O)(=O)N1CCOCC1` it was 1.29%. Next, `COCCn1nc(C(=O)N(C)Cc2cnn(C)c2)ccc1=O`: 42.3%. As for `COc1cccc(CCNS(=O)(=O)c2ccc(NC(C)=O)cc2)c1`, the cytotoxicity at 70.5 h was determined as 2.8%.

`CSc1ccc(C(CNC(=O)C2CC2)N2CCc3sccc3C2)cc1` (centres undefined): the cytotoxicity at 70.5 h is -2.83%. Regarding `CN(C)c1ccc(CNC(=O)c2ccc(Cl)cc2F)cc1`, the cytotoxicity at 70.5 h is 3.13%. Next, `CN(C)C(=O)CNC(=O)c1ccc(Cl)cc1F`: 45.3%; `Cc1nn(CC(=O)N2CCN(c3ccncc3)CC2)c(C)c1Cl`: 1.17%; `CNS(=O)(=O)c1ccc(C(=O)NC2CCOc3ccccc32)o1` (centres undefined): -1.45%. `Cc1nc2cc(O)nn2c(C)c1CCC(=O)N(C)Cc1cscn1`: the cytotoxicity at 70.5 h was found to be 30.1%. Next, `CCS(=O)(=O)CC(=O)NC(c1ccc(F)cc1)C1CCCC1` (centres undefined): 1.5%; `CCN(CC)C(=O)CCc1c(C)nc2cc(O)nn2c1C`: -3.01%. Next, `Cc1cccc(OCCC(=O)N(C)CCC#N)c1C`: -8.74%; `CCS(=O)(=O)CC(=O)NC(c1ccccc1)C1CCCCC1` (centres undefined): 2.89%; `CN(CCn1nc2ccccn2c1=O)CC(=O)N1CCCC1`: 4.26%. On to `CN(Cc1nccn1CC(F)(F)F)C(=O)c1ccc(F)cc1F`, for which the cytotoxicity at 70.5 h is -5.49%. In the case of `CNS(=O)(=O)c1cc(C(=O)NC2CCOc3ccccc32)cc(C)c1C` (centres undefined) it was 8.79%; in that of `Cc1cccc(OCCC(=O)N(C)CCNS(C)(=O)=O)c1C`, 0.181%; in that of `CCc1nc(C2CCCN(C(=O)c3cnn(CC)c3)C2)no1` (centres undefined), 2.05%. Next, `COc1cccc2c1OCC(NC(=O)NC1CCN(C3CC3)CC1)C2` (centres undefined): -5.93%; `CC(O)CN1CCN(C(=O)c2cc3ccccc3c(=O)[nH]2)CC1` (centres undefined): -1.26%. Next, `CN(CCN1CCOCC1)C(=O)CCCc1ccccc1`: -2.26%; `CN(CCn1nc2ccccn2c1=O)CC(=O)NC1CC1`: -8.39%; `Cc1cnn(CC2CCCN2C(=O)CCc2c(C)noc2Cl)c1` (centres undefined): -8.81%. For the compound `O=C(c1ccc(F)c(F)c1)N1CCCC1CN1CCCC1` (centres undefined), the cytotoxicity at 70.5 h was -1.66%.

Regarding `O=C(NCCc1nnc2n1CCC2)NC1(c2cccc(F)c2)CC1`, the cytotoxicity at 70.5 h stood at 7.47%. Next, `CCOc1nnc(CN(C)CC2CCCN2c2cccnn2)s1` (centres undefined): -4.16%; `CNC(=O)Cc1ccc(NC(=O)NC(C)C(C)C)cc1` (centres undefined): -15.4%.

As for `CC(=O)N1CCN(S(=O)(=O)c2ccc(C)c(F)c2)CC1`, the cytotoxicity at 70.5 h was -4.35%.

With `Cc1ccc(C(=O)NCCCNS(C)(=O)=O)cc1-n1cccc1`, the cytotoxicity at 70.5 h is -4.62%.

Turning to `CCNC(=O)NC(=O)CNC1(c2noc(C)n2)CCCCC1`, the cytotoxicity at 70.5 h is 28.5%. With `CC(c1nc(C2CC2)no1)N1CCN(c2ccc(C#N)cn2)CC1` (centres undefined), the cytotoxicity at 70.5 h was -10.6%. `NC(=O)C(CNC(=O)COCC(F)(F)F)Cc1ccc(F)cc1` (centres undefined): the cytotoxicity at 70.5 h is -18.2%. On to `CC(C)C(C)NC(=O)Nc1ccc(CS(C)(=O)=O)cc1` (centres undefined), for which the cytotoxicity at 70.5 h is -8.12%. In the case of `Cc1ccc(O)c(CNC2CCc3nc(C(C)C)nn3C2)n1` (centres undefined) it was -11.7%; in that of `CC(C)(C)c1n[nH]c(C2CN(C(=O)c3cc(Cl)c[nH]3)CCO2)n1` (centres undefined), -10.3%. Next, `Cc1ncsc1C(=O)Nc1cccc(OCC(F)F)n1`: -8.57%. In the case of `Cc1nc(CCNC(=O)N2CCC(Cc3cnn(C)c3)C2)cs1` (centres undefined) it was -29.6%; in that of `Cc1cccc(C(=O)N(C)Cc2cc(Br)cs2)n1`, -27.1%.

`COCC(=O)N1CCN(C(=O)c2scnc2C)CC1`: the cytotoxicity at 70.5 h was -11.5%. Next, `COC(=O)c1ccoc1COC(=O)CCc1ccc(OC)c(OC)c1`: -15.4%.

Regarding `NCC1CCCCN1C(=O)Cc1cccc(Br)c1` (centres undefined), the cytotoxicity at 70.5 h is -4.6%. Next, `NCC1CCCCN1C(=O)Cc1cccc(Cl)c1` (centres undefined): -6.28%.
